Data as given in patent publication US20220401514A1, “ANTIMICROBIAL, BACTERIOPHAGE-DERIVED POLYPEPTIDES AND THEIR USE AGAINST GRAM-NEGATIVE AND ACID-FAST BACTERIA” (CONTRAFECT CORPORATION, priority 2019, published 2022).
In brackets after ≈: the same amount, converted by molar mass. Read-outs that look alike come from different tables or passages of the source.

Key:
[1] = test system: P. aeruginosa strain PAO1; experiment: MIC against PAO1 in Mueller-Hinton broth with 50% human plasma or human serum; assay type: cell-based, Pseudomonas aeruginosa
P. aeruginosa (CFS 1292) = experiment: microbe, parasite or virus in culture; assay type: cell-based, Pseudomonas aeruginosa; conditions: for MIC: Pseudomonas aeruginosa
[2] = test system: Acinetobacter baumannii strain 30; experiment: Checkerboard assay (FICI) with antibiotics, A. baumannii; assay type: cell-based; parameters: key to FIC Index: FICI = FIC A + FIC B; ≤0.5 synergy, ≥2 antagonism; conditions: for Antibiotic FIC / Antibiotic MIC / Chp peptide FIC / Chp peptide MIC: checkerboard
Method: (§1) Checkerboard assays. […] Checkerboards were constructed by first preparing columns of a 96-well polypropylene microtiter plate, in which each well had the same amount of antibiotic diluted 2-fold along the horizontal axis. […] Summation fractional inhibitory concentration index (FICIs) were calculated for each drug and the minimum FICI was used to determine synergy. FICIs were calculated as follows: FICI=FIC A+FIC B, where FIC A is the MIC of each antibiotic in the combination/MIC of the each antibiotic alone, and FIC B is the MIC of each Chp peptide in the combination/MIC of each Chp peptide alone. The combination is considered synergistic when the FICI is ≤0.5, strongly additive when the FICI is >0.5 to <1, additive with the FICI is 1-<2, and antagonistic when the FICI is ≥2.
The results are shown below in Tables 22-27.

[3] = test system: Klebsiella pneumoniae strain 1139; experiment: Checkerboard assay (FICI) with antibiotics, K. pneumoniae; assay type: cell-based
Method: as §1

[4] = test system: P. aeruginosa strain CFS-1292; assay type: cell-based, Pseudomonas aeruginosa
[5] = test system: P. aeruginosa strain PA20 persister cells; experiment: Activity against persister cells, P. aeruginosa; assay type: cell-based, Pseudomonas aeruginosa
[6] = test system: Gram-negative bacteria (including P. aeruginosa, E. cloacae, K. pneumoniae, E. coli, and A. baumannii); experiment: Propidium iodide uptake; assay type: cell-based
Excerpt: The damage caused by the Chp peptides disclosed herein to the outer and inner membranes of Gram-negative bacteria can also be assessed with impermeable dyes such as propidium iodide. […] AGENTS CHEMO. 2012; 56:5698-5708.

[7] = test system: A. baumannii strain BAA-747 persister cells; experiment: Activity against persister cells, A. baumannii; assay type: cell-based, Acinetobacter baumannii
[8] = checkerboard, in combination with Chp4-M1
[9] = checkerboard, in combination with Chp6-M1
[10] = checkerboard, in combination with Chp10-M1
[11] = checkerboard, in combination with Unp2-M1
[12] = in combination with Azithromycin
[13] = in combination with Ciprofloxacin
[14] = in combination with Levofloxacin
[15] = in combination with Piperacillin

MARRYRLSRRRSRRLFSRTALRMHRRNRLRRIMRGGIRF [Chp4]
MIC [1]: 2 µg/mL | Minimal inhibitory concentration, Human Serum [1]: 2 µg/mL

NC[C@H]1O[C@H](O[C@H]2[C@H](O)[C@@H](O[C@H]3O[C@H](CO)[C@@H](O)[C@H](N)[C@H]3O)[C@H](N)C[C@@H]2N)[C@H](N)C[C@@H]1O [tobramycin, reference compound]
MIC (P. aeruginosa (CFS 1292); read-out: MIC Center): 0.5 µg/mL (≈ 1.07 µM) | MIC (P. aeruginosa (CFS 1292); read-out: MIC Periphery): 0.5 µg/mL (≈ 1.07 µM) | Antibiotic FIC ([2]; in combination with Chp2): 0.125 | Antibiotic MIC ([2]; in combination with Chp2): 0.01562 µg/mL | Antibiotic FIC ([2]; in combination with Chp2-M1): 0.25 | Antibiotic MIC ([2]; in combination with Chp2-M1): 0.01562 µg/mL | Antibiotic FIC ([2]; in combination with Chp4-M1): 0.5 | Antibiotic FIC ([2]; in combination with Chp6-M1): 0.25 | Antibiotic MIC ([2]; in combination with Chp6-M1): 0.01562 µg/mL | Antibiotic FIC ([2]; in combination with Chp10-M1): 0.25 | Antibiotic MIC ([2]; in combination with Chp10-M1): 0.01562 µg/mL | Antibiotic FIC ([2]; in combination with Unp2-M1): 0.25 | Antibiotic MIC ([2]; in combination with Unp2-M1): 0.01562 µg/mL | Antibiotic FIC [3, 8]: 0.125 | Antibiotic MIC [3, 8]: 0.003906 µg/mL | Antibiotic FIC [3, 9]: 0.125 | Antibiotic MIC [3, 9]: 0.003906 µg/mL | Antibiotic FIC [3, 10]: 0.125 | Antibiotic MIC [3, 10]: 0.003906 µg/mL | Antibiotic FIC [3, 11]: 0.125 | Antibiotic MIC [3, 11]: 0.003906 µg/mL | Antibiotic FIC ([3]; combined with Chp2): 0.25 | Antibiotic MIC in checkerboard ([3]; combined with Chp2): 0.007812 µg/mL | Antibiotic FIC ([3]; combined with Chp2-M1): 0.25 | Antibiotic MIC in checkerboard ([3]; combined with Chp2-M1): 0.003906 µg/mL

MRLKMARRRYRLPRRRSRRLFSRTALRMHPRNRLRRIMRGGIRF [Chp2]
Passage MIC Passage #1 (Untreated) (P. aeruginosa (CFS 1292); Passage #1, MIC of agent on untreated culture): 0.25 µg/mL | Passage MIC Passage #1 (P. aeruginosa (CFS 1292); Passage #1, colonies from spot dilution, duplicates (1),(2)): 0.25 µg/mL | Passage MIC Passage #2 (Untreated) (P. aeruginosa (CFS 1292); Passage #2, MIC of agent on untreated culture): 0.25 µg/mL | Passage MIC Passage #2 (P. aeruginosa (CFS 1292); Passage #2, colonies from spot dilution, duplicates (1),(2)): 0.25 µg/mL | Passage MIC Passage #3 (Untreated) (P. aeruginosa (CFS 1292); Passage #3, MIC of agent on untreated culture): 0.25 µg/mL | Passage MIC Passage #3 (P. aeruginosa (CFS 1292); Passage #3, colonies from spot dilution, duplicates (1),(2)): 0.25 µg/mL | Passage MIC Passage #4 (Untreated) (P. aeruginosa (CFS 1292); Passage #4, MIC of agent on untreated culture): 0.25 µg/mL | Passage MIC Passage #4 (P. aeruginosa (CFS 1292); Passage #4, colonies from spot dilution, duplicates (1),(2)): 0.25 µg/mL | Passage MIC Passage #5 (Untreated) (P. aeruginosa (CFS 1292); Passage #5, MIC of agent on untreated culture): 0.25 µg/mL | Passage MIC Passage #5 (P. aeruginosa (CFS 1292); Passage #5, colonies from spot dilution, duplicates (1),(2)): 0.25 µg/mL | MIC Center (P. aeruginosa (CFS 1292); spot dilution assay, colonies from center of clearing zone): No growth | MIC Periphery (P. aeruginosa (CFS 1292); spot dilution assay, colonies from periphery of clearing zone): 0.25 µg/mL | MIC Untreated control (P. aeruginosa (CFS 1292); spot dilution assay, untreated control): 0.25 µg/mL | propensity towards resistance (P. aeruginosa (CFS 1292); spot dilution colonies, five passages total): no propensity towards resistance | frequency (spontaneous resistance) ([4]; CAA media with agent at 4×MIC, resistant colonies after 48 hours / total CFUs): <1.25E−09 | MIC ([4]; P. aeruginosa CFS-1292, MIC underlying the 4×MIC selection): 0.25 µg/mL | Viable persister count after treatment (log10 CFU/mL) ([5]; P. aeruginosa PA20 persister cells, Run #1, limit of detection 2-log10 CFU/mL): 2.7 Log10 (CFU/mL) | Viable persister count after treatment (log10 CFU/mL) ([5]; P. aeruginosa PA20 persister cells, Run #2, limit of detection 2-log10 CFU/mL): 2.3 Log10 (CFU/mL) | Viable persister count after treatment (log10 CFU/mL) ([5]; P. aeruginosa PA20 persister cells, Run #3, limit of detection 2-log10 CFU/mL): 2 Log10 (CFU/mL) | Viable persister count after treatment (log10 CFU/mL) ([5]; P. aeruginosa PA20 persister cells, average of 3 runs): 2.3 Log10 (CFU/mL) | Delta Log ([5]; P. aeruginosa PA20 persister cells, log10 CFU/mL reduction as compared to buffer): 2.1 | log10 CFU/mL reduction as compared to buffer ([5]; P. aeruginosa persister cells, 1 hour at 37° C.): 2.1 log10 CFU/mL | cell envelop permeability (propidium iodide uptake) [6]: dose-dependent increase in cell envelop permeability was equivalent to that of colistin, LL37, and melittin | MIC [1]: 2 µg/mL | Minimal inhibitory concentration, Human Serum [1]: 2 µg/mL | MIC Log10 (CFU/mL) Run #1 ([7]; A. baumannii BAA-747 persister cells, 1 hour at 37° C., Run #1, limit of detection 1.6-log10 CFU/mL): 1.5 Log10 (CFU/mL) | MIC Log10 (CFU/mL) Run #2 ([7]; A. baumannii BAA-747 persister cells, 1 hour at 37° C., Run #2, limit of detection 1.6-log10 CFU/mL): 2.2 Log10 (CFU/mL) | MIC Log10 (CFU/mL) Run #3 ([7]; A. baumannii BAA-747 persister cells, 1 hour at 37° C., Run #3, limit of detection 1.6-log10 CFU/mL): 1.5 Log10 (CFU/mL) | MIC Log10 (CFU/mL) Average ([7]; A. baumannii BAA-747 persister cells, average of 3 runs): 1.8 Log10 (CFU/mL) | Delta Log ([7]; A. baumannii BAA-747 persister cells, log10 CFU/mL reduction as compared to buffer): 3.1 | log10 CFU/mL reduction as compared to buffer ([7]; A. baumannii persister cells, 1 hour at 37° C.): 3.1 log10 CFU/mL | FIC Index ([2]; Chp peptide + Amikacin): 0.281 | FIC Index ([2]; Chp peptide + Azithromycin): 0.563 | FIC Index ([2]; Chp peptide + Aztreonam): 0.313 | FIC Index ([2]; Chp peptide + Ciprofloxacin): 0.531 | FIC Index ([2]; Chp peptide + Colistin): 0.375 | FIC Index ([2]; Chp peptide + Gentamicin): 0.313 | FIC Index ([2]; Chp peptide + Imipenem): 0.531 | FIC Index ([2]; Chp peptide + Levofloxacin): 0.5 | FIC Index ([2]; Chp peptide + Meropenem): 0.375 | FIC Index ([2]; Chp peptide + Piperacillin): 0.375 | FIC Index ([2]; Chp peptide + Tobramycin): 0.188 | Chp peptide FIC ([2]; in combination with Amikacin): 0.03125 | Chp peptide MIC ([2]; in combination with Amikacin): 0.03125 µg/mL | Chp peptide FIC [2, 12]: 0.0625 | Chp peptide MIC [2, 12]: 0.03125 µg/mL | Chp peptide FIC ([2]; in combination with Aztreonam): 0.0625 | Chp peptide MIC ([2]; in combination with Aztreonam): 0.0625 µg/mL | Chp peptide FIC [2, 13]: 0.5 | Chp peptide MIC [2, 13]: 0.5 µg/mL | Chp peptide FIC ([2]; in combination with Colistin): 0.25 | Chp peptide MIC ([2]; in combination with Colistin): 0.25 µg/mL | Chp peptide FIC ([2]; in combination with Gentamicin): 0.0625 | Chp peptide MIC ([2]; in combination with Gentamicin): 0.0625 µg/mL | Chp peptide FIC ([2]; in combination with Imipenem): 0.03125 | Chp peptide MIC ([2]; in combination with Imipenem): 0.01562 µg/mL | Chp peptide FIC [2, 14]: 0.25 | Chp peptide MIC [2, 14]: 0.25 µg/mL | Chp peptide FIC ([2]; in combination with Meropenem): 0.125 | Chp peptide MIC ([2]; in combination with Meropenem): 0.125 µg/mL | Chp peptide FIC [2, 15]: 0.125 | Chp peptide MIC [2, 15]: 0.125 µg/mL | Chp peptide FIC ([2]; in combination with Tobramycin): 0.0625 | Chp peptide MIC ([2]; in combination with Tobramycin): 0.0625 µg/mL | FIC Index ([3]; Chp peptide combined with Azithromycin): 0.25 | FIC Index ([3]; Chp peptide combined with Aztreonam): 0.563 | FIC Index ([3]; Chp peptide combined with Colistin): 0.625 | FIC Index ([3]; Chp peptide combined with Imipenem): 0.5 | FIC Index ([3]; Chp peptide combined with Levofloxacin): 0.5 | FIC Index ([3]; Chp peptide combined with Meropenem): 0.313 | FIC Index ([3]; Chp peptide combined with Tobramycin): 0.5 | Chp peptide FIC ([3]; combined with Azithromycin): 0.125 | Chp peptide MIC in checkerboard ([3]; combined with Azithromycin): 0.0625 µg/mL | Chp peptide FIC ([3]; combined with Aztreonam): 0.0625 | Chp peptide MIC in checkerboard ([3]; combined with Aztreonam): 0.3125 µg/mL | Chp peptide FIC ([3]; combined with Colistin): 0.5 | Chp peptide MIC in checkerboard ([3]; combined with Colistin): 0.25 µg/mL | Chp peptide FIC ([3]; combined with Imipenem): 0.25 | Chp peptide MIC in checkerboard ([3]; combined with Imipenem): 0.125 µg/mL | Chp peptide FIC ([3]; combined with Levofloxacin): 0.25 | Chp peptide MIC in checkerboard ([3]; combined with Levofloxacin): 0.0625 µg/mL | Chp peptide FIC ([3]; combined with Meropenem): 0.0625 | Chp peptide MIC in checkerboard ([3]; combined with Meropenem): 0.0625 µg/mL | Chp peptide FIC ([3]; combined with Tobramycin): 0.25 | Chp peptide MIC in checkerboard ([3]; combined with Tobramycin): 0.125 µg/mL
